Where two headings read alike, the source gives them in different places.

2 compounds from patent US20220218725A1, “METHODS AND MATERIALS FOR TREATING CANCER” (Mayo Foundation for Medical Education and Research, priority 2019, published 2022) can be followed below.

The subject of data set [1] is Nonmalignant splenic MNC. Put plainly: Viability of nonmalignant cells, Annexin V/PI assay. In kind it is cell-based, human. As to conditions: 48 h, KPT-330 0.05-0.5 μM, CS 1-3 mM. From the text:
(§1) Primary patient samples were obtained. The mononuclear cells were obtained from bone marrow, spleen, peripheral blood and lymph nodes as follows. Freshly obtained tissue (lymph node, spleen, bone marrow) was placed in mesh screen and using a syringe plunger, the tissue was pressed into a petri dish. Samples were then rinsed through the screen using measured amounts of RPMI until all tissue has been pressed through. […] Subsequently the mononuclear cells were isolated via centrifugation in the presence of ficoll and this step was again repeated following washing the cells with RPMI media.
(§2) To isolate peripheral blood mononuclear cells (PBMCs), freshly obtained patient blood sample of patients were centrifuged in the present of ficoll and this step was repeated twice following washing the cells with PBS. Following isolating the mononuclear cells, the viability was assessed and ascertained proper viability above 80% prior to conduct respective experiments. Non-malignant cells were confirmed not to have a malignant condition by pathology review of the tissue.

The subject of data set [2] is Nonmalignant BM MNC. The data set is described as above. As to conditions: 48 h, KPT-330 0.05-0.5 μM, CS 1-3 mM. It counts as cell-based, human.
From the text: as §1, §2

Data set [3] deals with Nonmalignant PBMC. Described as above. It counts as cell-based, human. As to conditions: 48 h, KPT-330 0.05-0.5 μM, CS 1-3 mM.
From the text: as §1, §2

For data set [4], the system named is U2OS cells transfected with nuclear export reporter construct (NLS-GFP-NES). The data set is described as follows: Nuclear export efficiency assay (NLS-GFP-NES reporter). It counts as cell-based. As to conditions: 24 hours, KPT-330 at 0.5 μM, 100 reporter-expressing cells scored. From the text: A GFP reporter construct was made using the backbone of pEGFP-N1 vector. Specifically, the green fluorescence (GFP) was in-frame tagged with 3 consecutive copies of nuclear localization sequence (NLS) of SV40 large T antigen to the N-terminus and 3 consecutive copies of nuclear export sequences (NES) of HIV Rev to the C-terminus. The resulting construct encodes NLS-GFP-NES fusion protein capable of shuttling freely between the nucleus and the cytoplasm. The construct DNA was transfection into U2OS cells using Lipofectamine 2000 reagent (Life Technologies) according to product instruction. Six hours post transfection, the cells were treated with vehicle, CS, KPT-330, and K+CS for 24 hours. Finally, the treated cells were fixed with 4% PFA, and permeabilized, and stained for endogenous expression of CRM1 protein with anti-CRM1 antibody (Cell Signaling, Danvers, Mass.; catalog number: 46249, dilution 1:1500). Cell images were collected on a Zeiss LSM 780 confocal microscope.

The nature of data set [5]: Viability of nonmalignant cells, Annexin V/PI assay. It counts as cell-based, human. As to conditions: human, KPT-330 0.05-0.5 μM, CS 1-3 mM, read-out: % viability normalized for respective controls.
From the text: as §1, §2

For `C[N+](C)(C)CCO.O=C([O-])c1ccccc1O` [CS, choline salicylate], the “% viability normalized for respective controls” value in data set [1] (Splenic MNC (sample of r39)) was determined as 82%; in data set [1] (Splenic MNC (sample of r40)), 64%; in data set [1] (Splenic MNC (sample of r41)), 76%; in data set [1] (Splenic MNC (sample of r42)), 76%; in data set [2] it was 82%; in data set [3], 78%.

In the case of `O=C(/C=C\n1cnc(-c2cc(C(F)(F)F)cc(C(F)(F)F)c2)n1)NNc1cnccn1` [KPT-330, (Z)-3-[3-[3,5-bis (trifluoromethyl)phenyl]-1,2,4-triazol-1-yl]-N′-pyrazin-2-ylprop-2-enehydrazide], the “cells with complete nuclear localization of GFP” value in data set [4] worked out at 28%. Moreover, the viability – broadly, a per cent measure of how many cells are alive, often set against a control – at 48 h was 78% in data set [5] (nonmalignant bone marrow mononuclear cells, BM MNC); 86% in data set [5] (nonmalignant peripheral blood mononuclear cells (PBMC)); 84% in data set [5] (nonmalignant splenic mononuclear cells, Splenic MNC (sample of r39)); 66% in data set [5] (nonmalignant splenic mononuclear cells, Splenic MNC (sample of r40)); 59% in data set [5] (nonmalignant splenic mononuclear cells, Splenic MNC (sample of r41)); 58% in data set [5] (nonmalignant splenic mononuclear cells, Splenic MNC (sample of r42)).
